Test results published in patent US20080070952A1, “Inhibition or Treatment of Dyskinesia” (PROXIMAGEN LTD.,, priority 2005, published 2008).

System: L-DOPA primed MPTP treated animals (common marmosets)
Assay: L-DOPA induced motor activity, motor disability and dyskinesia (chorea, dystonia) in L-DOPA primed MPTP treated marmosets
Type: in vivo, Callithrix Jacchus
Conditions: same protocol as Examples 1-8; NOS inhibitors s.c., Vinyl L-NIO 6 mg/kg, 7-NI 20 mg/kg, L-NIO dose not given
Protocol: In the following procedure, all NOS inhibitors (nNOSi) were administered subcutaneously. All other drugs with the exception of 7-nitroindazole were dissolved in deionised water or for oral administration dissolved in deionised water containing 10% sucrose and were administered orally. 7-nitroindazole was dissolved in a 30:70 v/v in water and DMSO. In experiments using ropinirole, animals were pre-treated with a single oral dose of domperidone (5 mg·kg^−1) as an anti-emetic, 30 min before. Carbidopa and domperidone were given as suspension in deionised water and 10% sucrose.
Adult common marmosets of either sex (Callithrix Jacchus; n=6), weighing between 310 to 380 g were used in this study. Marmosets were housed either in pairs or individually at a temperature of 25±1_ C with 50% relative humidity on a 12-hour light-dark cycle. Animals were fed once daily on a diet of fresh fruit, nuts, Mazuri food pellets, and a supplement of vitamin D3 and had free access to water. On experimental days, the animals were fed following completion of behavioural testing.
Marmosets were treated with 1-methyl-4-phenyl-1,2,3,6-tetrahydropyridine hydrochloride (2.0 mg·kg^−1 subcutaneously; MPTP-HCl; Research Biochemicals International; dissolved in 0.9% sterile saline) daily for 5 consecutive days. This treatment regimen induces a persistent and stable syndrome of akinesia, bradykinesia, rigidity, postural abnormality, incoordination and postural tremor (Jenner and Marsden, 1986; Pearce et al., 1995). Animals were hand fed on a cocktail of Mazuri marmoset jelly, dried milk and pureed bananas until body weight had returned towards pre-treatment levels.
Eight weeks following MPTP-treatment, all animals (n=6) were treated for 30 to 40 days with 12.5 mg·kg^−1 L-DOPA methyl ester (Sigma) plus 12.5 mg·kg^−1 carbidopa (Merck Sharp & Dohme) by oral gavage on a daily basis. Carbidopa was administered 30 to 45 min prior to L-DOPA treatment (Pearce et al., 1995). When animals became dyskinetic, daily dosing with a combination of L-DOPA/carbidopa was changed to a once a week treatment. At this point and on, once a week L-DOPA/carbidopa treatment produced similar level of dyskinesia to that produced at the end of the daily priming period. […]
Motor Activity: Motor activity was measured in test cages equipped with an array of 8 infra red photo sensors (perspex fronted aluminium cages, 50×60×70 cm), The number of beam interruptions due to movement was counted and summed in bins of 10 minute interval using an analogue to digital converter attached to an Intel-based PC. Motor activity was measured over a period of 6 hours and expressed both as time course measuring the number of beam interruption occurring in 10 min time segments, or as the total number of beam interruptions over the test period. […]

In the case of `N=C(N)SCCc1cccc(CCSC(=N)N)c1` [1,3 PB-ITU, S,S′-1,3-Phenylene-bis(1,2-ethanediyl)-bis-isothiourea], the L-Dopa induced dyskinesia is reported as “did not reduce”.

For `O=[N+]([O-])c1cccc2cn[nH]c12` [7-NI, 7-nitroindazole], the L-Dopa induced dyskinesia was “reduced”.

With `N=C(N)SCCN` [S-(2-aminoethyl)-ITU, S-(2-aminoethyl)-isothiourea] the L-Dopa induced dyskinesia was “did not reduce”.

`C=CCC(=N)NCCC[C@H](N)C(=O)O` [Vinyl L-NIO, L-N5-(1-imino-3-butenyl)-ornithine] was tested, and the L-Dopa induced dyskinesia was “reduced”.
